# In patent publication EP3632468B1, “5-IODO-4-THIO-2'-DEOXYURIDINE FOR USE AS A RADIOSENSITIZER IN RADIOTHERAPY” (Uniwersytet Gdanski, priority 2018, dated 2020):
# Key:
# Assay type in all cases: cell-based
# [1] = test system: MCF-7 cells (human breast cancer cells); assay: Cytometric analysis of phosphorylation of histone H2A.X (double strand break marker); settings: 10^-4 M ISdU 48 h
# Protocol: One of the damages caused by ISdU are double strand break of DNA, whose molecular marker is phosphorylation of histone H2A.X. To confirm the application of the compound in radiotherapy, the cytometric analysis of phosphorylation of histone H2A.X, molecular marker of double strand break of DNA was carried out.
# The MCF-7 cells (human breast cancer cells) were grown up in RPMI medium supplemented with 10 % FBS (fetal bovine serum) and antibiotics (penicillin and streptomycin) at a concertation of 100 U · ml^-1. The cells were treated with ISdU at the concentration of 10^-4 M and incubated (37°C, 5% CO2) for 48 h. Upon this time, plate cultures were X-ray irradiated with doses of 1 Gy and 2 Gy, using of e.g. Cellrad X-ray cabinet, Faxitron X-ray Corporation, and incubated for 1 h in the same condition. Next, the cells were detached with solution of Accutase (Life Technologies, UK), fixed and permeabilized (fixation and permeabilization was performed by the manufacturer's protocol FlowCellect™ Histone H2A.X Phosphorylation Assay Kit, Merck). Prepared cells were analyzed by cytometric using of e.g. Guava easyCyte™, Merck. The experiment was performed in triplicated. The non-treated cells were a control.
# [2] = test system: human breast cancer cells - MCF-7 line; assay: MTT cytotoxicity assay, MCF-7; settings: MCF7, light or radiation study, 100 µM ISdU, 48 h incubation, no irradiation, read-out: MCF-7 cells viability compared to the control
# Protocol: (§1) Cytotoxic activity was determined using the MTT assay after incubation of MCF-7 (CLS, Eppelheim) or HDFa (Gibco Invitrogen) cells with ISdU. The MCF-7 cells were grown in RPMI supplemented with 10% FBS and antibiotics (streptomycin and penicillin) at a concentration of 100 U·mL^-1. The HDFa cells were grown in DMEM supplemented with 10% FBS and antibiotics (streptomycin and penicillin) at the same concentration. Cells at a density of 4·10^3 per well were seeded into a 96-well plate and incubated (37°C, 5% CO2) for 24 h. Then, the medium was freshly changed, and the cells were treated with ISdU at concentrations of 0 (control), 10^-4, 5·10^-5, 10^-5, 10^-6, 10^-7 and 10^-8 M. Cells were incubated with ISdU for 24 h and 48 h. After this time, the aqueous MTT salt solution at a concentration of 4 mg·mL^-1 was added to each well. After 4 h of incubation, the medium was removed and 200 µL of dimethylsulfoxide (DMSO) was added to dissolve the formazan crystals. The absorbance was measured at 570 nm (with 660 nm taken as the reference) on an EnSpire microplate reader (PerkinElmer). […] The results were analyzed with the use of GraphPad Prism software. The statistical evaluation of treated samples and untreated controls was calculated using one-way analysis of variance (ANOVA) followed by […] multiple comparison test. […]
# [3] = test system: human dermal fibroblasts - HDFa line; assay: MTT cytotoxicity assay, HDFa; settings: ISdU 10^-8 to 10^-4 M, 24 h and 48 h incubation, no irradiation
# Protocol: as §1
smiles,measurement,setting,value
"O=c1[nH]c(=S)c(I)cn1[C@H]1C[C@H](O)[C@@H](CO)O1 [ISdU, 5-iodo-4-thio-2'-deoxyuridine]",γH2A.X positive cells,"[1]; 1 Gy X-ray, measured 1 h after irradiation (control 26.56 ± 1.14%)",35.15 ± 1.48%
same,γH2A.X positive cells,"[1]; 2 Gy X-ray, measured 1 h after irradiation (control 49.38 ± 3.8%)",60.25 ± 2.98%
same,viability at 100 µM,[2],91 ± 3%
same,HDFa cell viability,[3],a statistically significant decrease in cell viability was not observed
